Laboratory results as given in patent US9095585B2, “Bioavailable compositions of amorphous piperidinyl compounds” (Bristol-Myers Squibb Company, priority 2011, dated 2015).

Test: Physicochemical properties of Compound I (ionization, aqueous solubility)

For `CC(C)[C@@H](NC(=O)NCC(C)(C)O)C(=O)N1CC[C@](O)(c2ccc(Cl)cc2)C(C)(C)C1` [Compound I], the ionization (pH range of 2-11) was “non-ionizable” and the aqueous solubility (room temperature) was “low”.
